Tests used:
[1] = tested on: Diamond Back Moth (Plutella xylostella); assay: Diamond back moth leaf-dip test; type: in vivo; settings: cabbage leaves dipped, 3rd instar larvae, 72 hours after treatment, read-out: mortality in comparison with untreated controls
Procedure: B.1 Diamond Back Moth (Plutella xylostella)
The active compound was dissolved at the desired concentration in a mixture of 1:1 (vol:vol) distilled water:aceteone. Surfactant (Kinetic HV) was added at a rate of 0.01% (vol/vol). The test solution was prepared at the day of use.
Leaves of cabbage were dipped in test solution and air-dried. Treated leaves were placed in petri dishes lined with moist filter paper and inoculated with ten 3rd instar larvae. Mortality was recorded 72 hours after treatment. Feeding damages were also recorded using a scale of 0-100%.

[2] = tested on: Green Peach Aphid (Myzus persicae); assay: Green peach aphid systemic test on artificial diet in microtiter plates; type: in vivo; settings: 72 h, adult aphids on treated artificial diet, 3 days, read-out: mortality in comparison with untreated controls
From the text: B.2 Green Peach Aphid (Myzus persicae)
For evaluating control of green peach aphid (Myzus persicae) through systemic means the test unit consisted of 96-well-microtiter plates containing liquid artificial diet under an artificial membrane.
The compounds were formulated using a solution containing 75% v/v water and 25% v/v DMSO. Different concentrations of formulated compounds were pipetted into the aphid diet, using a custom built pipetter, at two replications.
After application, 5-8 adult aphids were placed on the artificial membrane inside the microtiter plate wells. The aphids were then allowed to suck on the treated aphid diet and incubated at about 23±1° C. and about 50±5% relative humidity for 3 days. Aphid mortality and fecundity was then visually assessed.

[3] = tested on: Tobacco Budworm (Heliothis virescens); assay: Tobacco budworm microtiter plate diet test; type: in vivo; settings: 120 h, sprayed onto insect diet with eggs, egg and larval mortality after 5 days, read-out: mortality in comparison with untreated controls
Procedure: B.5 Tobacco Budworm (Heliothis virescens)
For evaluating control of tobacco budworm (Heliothis virescens) the test unit consisted of 96-well-microtiter plates containing an insect diet and 15-25 H. virescens eggs. The compounds were formulated using a solution containing 75% v/v water and 25% v/v DMSO. Different concentrations of formulated compounds were sprayed onto the insect diet at 10 μl, using a custom built micro atomizer, at two replications.
After application, microtiter plates were incubated at about 28±1° C. and about 80±5% relative humidity for 5 days. Egg and larval mortality was then visually assessed.

[4] = tested on: Boll Weevil (Anthonomus grandis); assay: Boll weevil microtiter plate diet test; type: in vivo; settings: 120 h, sprayed onto insect diet with eggs, egg and larval mortality after 5 days, read-out: mortality in comparison with untreated controls
Procedure: B.6 Boll Weevil (Anthonomus grandis)
For evaluating control of boll weevil (Anthonomus grandis) the test unit consisted of 96-well-microtiter plates containing an insect diet and 5-10 A. grandis eggs.
The compounds were formulated using a solution containing 75% v/v water and 25% v/v DMSO. Different concentrations of formulated compounds were sprayed onto the insect diet at 5 μl, using a custom built micro atomizer, at two replications.
After application, microtiter plates were incubated at about 25±1° C. and about 75±5% relative humidity for 5 days. Egg and larval mortality was then visually assessed.

[5] = tested on: Mediterranean Fruitfly (Ceratitis capitata); assay: Mediterranean fruitfly microtiter plate diet test; settings: 120 h, read-out: mortality in comparison with untreated controls
[6] = tested on: Vetch Aphid (Megoura viciae); assay: Vetch aphid broad bean leaf disk test; type: in vivo; settings: foliar, 120 h, sprayed onto broad bean leaf disks, adult aphids, 5 days, read-out: mortality in comparison with untreated controls
Procedure: B.4 Vetch Aphid (Megoura viciae)
For evaluating control of vetch aphid (Megoura viciae) through contact or systemic means the test unit consisted of 24-well-microtiter plates containing broad bean leaf disks.
The compounds were formulated using a solution containing 75% v/v water and 25% v/v DMSO. Different concentrations of formulated compounds were sprayed onto the leaf disks at 2.5 μl, using a custom built micro atomizer, at two replications.
After application, the leaf disks were air-dried and 5-8 adult aphids placed on the leaf disks inside the microtiter plate wells. The aphids were then allowed to suck on the treated leaf disks and incubated at about 23±1° C. and about 50±5% relative humidity for 5 days. Aphid mortality and fecundity was then visually assessed.

[7] = tested on: Orchid Thrips (Dichromothrips Corbetti); assay: Orchid thrips floral-immersion test; type: in vivo; settings: orchid petals dipped, adult thrips, 72 hours after treatment, read-out: mortality in comparison with untreated controls
Procedure: B.7 Orchid Thrips (Dichromothrips Corbetti)
Dichromothrips corbetti adults used for bioassay were obtained from a colony maintained continuously under laboratory conditions. For testing purposes, the test compound is diluted in a 1:1 mixture of acetone:water (vol:vol), plus Kinetic HV at a rate of 0.01% v/v.
Thrips potency of each compound was evaluated by using a floral-immersion technique. All petals of individual, intact orchid flowers were dipped into treatment solution and allowed to dry in Petri dishes. Treated petals were placed into individual resealable plastic along with about 20 adult thrips. All test arenas were held under continuous light and a temperature of about 28° C. for duration of the assay. After 3 days, the numbers of live thrips were counted on each petal. The percent mortality was recorded 72 hours after treatment.

O=C(NCC(F)(F)F)N/N=C/c1ccc(C2=NSC(c3cc(Cl)c(Cl)c(Cl)c3)(C(F)(F)F)C2)c2ccccc12 (stereo not drawn) [Compound 1-1, 1-[(E)-[4-[5-(3,4,5-trichlorophenyl)-5-(trifluoromethyl)-4H-isothiazol-3-yl]-1-naphthyl]methyleneamino]-3-(2,2,2-trifluoroethyl)urea]
≥ 75%: mortality at 500 ppm [1] | mortality at 2500 ppm [2] | mortality at 2500 ppm [3] | mortality at 2500 ppm [4] | mortality at 2500 ppm [5]

O=C(NCC1CC(F)(F)C1)c1ccc(C2=NSC(c3cc(Cl)c(Cl)c(Cl)c3)(C(F)(F)F)C2)c2ccccc12 (stereo not drawn) [Compound 2-1, N-[(3,3-difluorocyclobutyl)methyl]-4-[5-(3,4,5-trichlorophenyl)-5-(trifluoromethyl)-4H-isothiazol-3-yl]naphthalene-1-carboxamide]
≥ 75%: mortality at 500 ppm [1] | mortality at 2500 ppm [2] | mortality at 2500 ppm [6] | mortality at 2500 ppm [3] | mortality at 2500 ppm [4] | mortality at 500 ppm [7] | mortality at 2500 ppm [5]

Source: patent US10327446B2, “Naphthyl- or isoquinolinyl-substituted isothiazoline compounds” (BOEHRINGER INGELHEIM ANIMAL HEALTH USA INC., priority 2013, dated 2019)
